In publication PMC7838297, “Acyl-CoA thioesterase activity of peroxisomal ABC protein ABCD1 is required for the transport of very long-chain acyl-CoA into peroxisomes” (Scientific Reports, 2021):
One block for each molecule: values may come before it.

Columns and labels:
Format in all cases: biochemical
His-ABCD1 (human ABCD1) [1] = target: T1, His-ABCD1 (human ABCD1) (Homo sapiens, UniProt P33897); experiment: ATPase, phosphate release; settings: 5 mM ATP, 11 mM MgCl2, pH 7.6, 37 °C; ABCD1-liposomes
T1 construct: full-length, His-tagged (tag kept), expressed in Komagataella phaffii pxa1-delta, beta-DDM-solubilised, metal-chelate purified, reconstituted into soybean PC liposomes; about 80 kDa band

His-KpFAA2 = target: T2, His-KpFAA2 (Komagataella phaffii, UniProt F2QZH2); experiment: acyl-CoA synthesis, TLC; settings: 5 mM CoA, 5 mM ATP, 5 mM MgCl2, pH 7.5, 30 °C, 3 h
T2 construct: gene FAA2; His-tagged, expressed in K. phaffii SMD1168, metal-chelate purified as for His-ABCD1
T2 sequence (F2QZH2 1-741): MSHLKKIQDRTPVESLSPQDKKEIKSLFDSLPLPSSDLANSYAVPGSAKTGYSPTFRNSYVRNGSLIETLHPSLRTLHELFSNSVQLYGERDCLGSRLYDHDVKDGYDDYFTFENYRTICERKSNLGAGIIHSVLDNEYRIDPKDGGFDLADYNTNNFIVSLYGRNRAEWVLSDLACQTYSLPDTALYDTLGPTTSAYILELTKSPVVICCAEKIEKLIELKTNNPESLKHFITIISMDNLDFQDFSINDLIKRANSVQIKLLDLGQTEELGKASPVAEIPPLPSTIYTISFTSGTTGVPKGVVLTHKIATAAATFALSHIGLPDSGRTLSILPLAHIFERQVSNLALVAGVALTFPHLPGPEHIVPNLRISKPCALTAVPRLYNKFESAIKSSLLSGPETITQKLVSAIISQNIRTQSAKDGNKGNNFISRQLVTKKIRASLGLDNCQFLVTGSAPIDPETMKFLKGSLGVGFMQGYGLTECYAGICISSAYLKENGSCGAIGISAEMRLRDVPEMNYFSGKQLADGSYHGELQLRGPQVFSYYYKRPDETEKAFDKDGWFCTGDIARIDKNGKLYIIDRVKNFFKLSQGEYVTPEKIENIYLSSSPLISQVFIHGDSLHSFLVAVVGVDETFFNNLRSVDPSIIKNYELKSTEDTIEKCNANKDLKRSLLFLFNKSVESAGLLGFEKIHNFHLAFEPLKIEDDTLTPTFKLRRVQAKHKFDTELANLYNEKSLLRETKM

His-ABCD1 (human ABCD1) [2] = target: T3, His-ABCD1 (human ABCD1) (Homo sapiens, UniProt P33897, K513A); experiment: thioesterase assay by TLC; in-gel fluorescence of acylated protein; settings: 1 mM MgCl2, 37 °C, 30 min; mutant liposomes; covalent acyl intermediate
T3 construct: full-length, His-tagged (tag kept), expressed in Komagataella phaffii pxa1-delta, beta-DDM-solubilised, metal-chelate purified, reconstituted into soybean PC liposomes; about 80 kDa band
T3 sequence (P33897 1-745 K513A): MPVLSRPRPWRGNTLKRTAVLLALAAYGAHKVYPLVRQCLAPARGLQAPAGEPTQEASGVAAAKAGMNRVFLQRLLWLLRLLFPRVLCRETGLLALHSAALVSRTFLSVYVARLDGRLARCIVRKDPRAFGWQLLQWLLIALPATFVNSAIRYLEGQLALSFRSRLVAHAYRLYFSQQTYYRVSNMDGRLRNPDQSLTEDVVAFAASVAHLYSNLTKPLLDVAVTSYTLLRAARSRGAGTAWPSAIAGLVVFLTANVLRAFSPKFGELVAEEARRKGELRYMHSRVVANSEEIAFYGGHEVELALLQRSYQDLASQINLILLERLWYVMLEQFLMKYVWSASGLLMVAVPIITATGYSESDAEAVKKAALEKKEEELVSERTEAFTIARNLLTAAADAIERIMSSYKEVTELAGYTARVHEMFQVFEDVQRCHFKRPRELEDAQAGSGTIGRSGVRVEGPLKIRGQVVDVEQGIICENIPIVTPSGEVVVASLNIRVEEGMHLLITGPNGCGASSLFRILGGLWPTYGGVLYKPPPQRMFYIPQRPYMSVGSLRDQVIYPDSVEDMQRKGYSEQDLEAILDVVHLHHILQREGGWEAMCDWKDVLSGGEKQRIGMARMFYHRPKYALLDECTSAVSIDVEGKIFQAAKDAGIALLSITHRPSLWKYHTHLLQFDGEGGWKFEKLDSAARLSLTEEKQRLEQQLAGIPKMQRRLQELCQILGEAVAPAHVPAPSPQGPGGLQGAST

His-ABCD1 (human ABCD1) [3] = target: T1, His-ABCD1 (human ABCD1); experiment: as above; settings: 1 mM MgCl2, 37 °C; ABCD1-liposomes; covalent acyl (thioester) intermediate
His-ABCD1 (human ABCD1) [4] = target: T1, His-ABCD1 (human ABCD1); experiment: liposome transport assay of NBD-C16, dithionite quench, TLC; settings: read-out: residual NBD-C16 transport at 20 μM

ATPase, phosphate release (His-ABCD1 (human ABCD1) [1]): ABCD1-liposomes possess ATPase activity
SMILES: Nc1ncnc2c1ncn2[C@@H]1O[C@H](COP(=O)(O)OP(=O)(O)OP(=O)(O)O)[C@@H](O)[C@H]1O [ATP]

SMILES: O=C(O)CCCCCNc1ccc([N+](=O)[O-])c2nonc12 [NBD-C6]
acyl-CoA synthesis, TLC (His-KpFAA2): NBD-C6) was incubated with purified His-KpFAA2 to generate NBD-hexanoyl-CoA

SMILES: CC(C)(COP(=O)(O)OP(=O)(O)OC[C@H]1O[C@@H](n2cnc3c(N)ncnc32)[C@H](O)[C@@H]1OP(=O)(O)O)[C@@H](O)C(=O)NCCC(=O)NCCSC(=O)CCCCCCCCCCCCCCCNc1ccc([N+](=O)[O-])c2nonc12 [NBD-C16-CoA]
thioesterase assay by TLC; in-gel fluorescence of acylated protein (His-ABCD1 (human ABCD1) [2]): these mutants possess ACOT activity comparable to the wild type and exhibited covalent linkage
thioesterase assay by TLC; in-gel fluorescence of acylated protein (His-ABCD1 (human ABCD1) [3]): demonstrating that ABCD1 is covalently labeled by NBD-C16

remaining activity at 20 µM (His-ABCD1 (human ABCD1) [4]): 3.95 ± 0.7%
SMILES: CCCCCCCCCCCCCCCC(=O)SCCNC(=O)CCNC(=O)[C@H](O)C(C)(C)COP(=O)(O)OP(=O)(O)OC[C@H]1O[C@@H](n2cnc3c(N)ncnc32)[C@H](O)[C@@H]1OP(=O)(O)O [palmitoyl-CoA]
